Bounds are passed on as bounds.

In this experiment the test system is GBM0308 neurospheres. The experiment is described as follows: Neurosphere formation assay (single neurosphere, PI/Hoechst). In kind it is cell-based. To be noted: 72 hours. The procedure:
To gain additional mechanistic insights into GBM cell death induced by (−)-20, the inventors conducted several functional assays. The inventors first derived a single neurosphere from GBM0308 cells cultured in stem cell conditions, which was treated with either DMSO or (−)-20 at varying doses for three days followed by staining with PI and Hoechst dyes and subsequent imaging. […] To capture the kinetics of apoptotic events, the inventors employed caspase 3/7 staining of GBM0308 neurospheres treated with either DMSO or (−)-20 and subsequently evaluated at three timepoints over a 48-hour period. […] (FIG. 5B).
Neurosphere Formation Assays: Single neurospheres were generated by seeding GBM0308 cells (400 cells per well) in a 384-well ultra-low attachment round bottom microplate (Nexcelom Bioscience, ULA-384 U). The plates were then centrifuged at 300×g for 10 minutes to cluster cells at the bottom of the wells, followed by incubation at 37° C. and 5% CO2 for 4 days to allow the formation of single neurospheres and treated with either DMSO or drugs at concentrations of 3.3, 1.11, 0.37, 0.12, 0.041, 0.013, 0.004 μM. On Day 7, neurospheres were stained with propidium iodide and Hoechst, as described above. The “neurosphere 1+Mask” application was used to measure the fluorescent intensities of PI, using Celigo cytometer as described previously.^70

For RK-33 [reference compound], the “concentration required to observe a noticeable effect on neurosphere size” value was more than 3 µM.

The values above are taken from patent US12612395B2, “Rocaglate derivatives and uses thereof” (TRUSTEES OF BOSTON UNIVERSITY, priority 2023, dated 2026).
